Source: US20230312580A1, “1-(5-(2-CYANOPYRIDIN-4-YL)OXAZOLE-2-CARBONYL)-4-METHYLHEXAHYDROPYRROLO[3,4-B]PYR ROLE-5(1H)-CARBONITRILE AS USP30 INHIBITOR FOR USE IN THE TREATMENT OF MITOCHONDRIAL DYSFUNCTION, CANCER AND FIBROSIS” (MISSION THERAPEUTICS LIMITED, priority 2020, published 2023)
≈ marks a conversion by molar mass, not a printed value.

Legend:
USP30 = USP30 (Homo sapiens (Human), UniProt Q70CQ3); assay: USP30 biochemical IC50 assay (fluorescence polarisation); settings: biochemical FP assay, 30 min enzyme/compound incubation
Protocol: Compounds of the invention may be tested for USP30 affinity using the in vitro biochemical fluorescence polarization (FP) assay described herein.
Dilution plates were prepared at 21 times the final concentration (2100 µM for a final concentration of 100 µM) in 50% DMSO in a 96-well polypropylene V-bottom plate (Greiner #651201). A typical 8-point dilution series would be 100, 30, 10, 3, 1, 0.3, 0.1, 0.03 µM final. Reactions were performed in duplicate in black 384 well plates (small volume, Greiner 784076) in a final reaction volume of 21 µl. Either 1 µl of 50% DMSO or diluted compound was added to the plate. USP30 (Boston Biochem #E582) was diluted in reaction buffer (40 mM Tris, pH 7.5, 0.005% Tween 20, 0.5 mg/ml BSA, 5 mM beta-mercaptoethanol) to achieve a final assay concentration of 4 nM, and 10 µl of diluted USP30 was added to the compound. Enzyme and compound were incubated for 30 min at room temp. Reactions were initiated by the addition of 50 nM of TAMRA labelled peptide linked to ubiquitin via an iso-peptide bond as fluorescence polarisation substrate. Reactions were read immediately after addition of substrate and following a 2-hour incubation at room temperature. Readings were performed on a Pherastar Plus (BMG Labtech). λ Excitation 540 nm; λ Emission 590 nm.

[1] = tested on: USP2, USP6, USP10, USP16, USP21, USP25, USP28; assay: DUB IC50 selectivity panel (seven DUBs); assay type: biochemical; settings: range over the seven DUBs
Cathepsin B = Cathepsin B (Homo sapiens (Human), UniProt P07858); assay: Cathepsin B IC50; assay type: biochemical
Cathepsin L = Cathepsin L (Homo sapiens (Human), UniProt P07711); assay: Cathepsin L IC50; assay type: biochemical
Cathepsin V = Cathepsin V (Homo sapiens (Human), UniProt O60911); assay: Cathepsin V IC50; assay type: biochemical
Hepatocyte Cl mouse = assay type: in vitro ADME; settings: mouse hepatocytes
Protocol: Hep Cl mouse: in vitro hepatocyte clearance in mouse cells.
(§1) Clu: in vitro clearance. Clu as defined here is the scaled clearance, in turn calculated from the intrinsic clearance. The intrinsic clearance is the predicted clearance due to hepatic metabolic reactions, determined from incubation of a compound in a hepatocyte preparation.

Mouse plasma stability = assay type: in vitro ADME; settings: for half-life: read-out: Stability Mouse plasma t½
Source text: Other parameters that may be measured using standard assays that are indicative of a compound’s exposure profile include, for example plasma stability (half-life measurement), blood AUC, Cmax, Cmin and Tmax values.

UCHL1 = UCHL1 (Homo sapiens (Human), UniProt P09936); assay: UCHL1 DUB IC50; assay type: biochemical
[2] = tested on: cathepsins (B, K, L, S and V); assay: Cathepsin IC50 panel, summary over B, K, L, S, V; assay type: biochemical; settings: range over the five cathepsins
[3] = tested on: Eurofins CEREP SafetyScreen44 panel; assay: Eurofins CEREP SafetyScreen44 panel profiling; assay type: binding; settings: single concentration of 10 µM
Source text: Aside from selectivity over other DUB enzymes, it is important for a drug to have low affinity for other targets, and pharmacological profiling may be performed against panels of targets to assess the potential for, and to minimise, potential off-target effects. Examples of targets for which the compounds of the present invention may be screened against are those of the industry standard Eurofins-Cerep SafetyScreen44 panel, which includes 44 targets as a representative selection of GPCR receptors, transporters, ion channels, nuclear receptors, and kinase and non-kinase enzymes. Preferably, compounds of the invention have insignificant affinity against targets of this screening panel. Further examples of targets for which the compounds of the present invention may be screened against are kinases of the Thermo Fisher SelectScreen kinase profiling panel, which includes 39 targets as a representative selection of kinase enzymes. Preferably, compounds of the invention have insignificant affinity against targets of this screening panel. Additionally, examples of a particular enzyme class for which the compounds of the present invention may be screened against are the cathepsins (e.g. cathepsin A, B, C, H, K, L, L2, S, V and Z). Preferably, compounds of the invention have good selectivity for USP30 over one or more of these enzymes.

hERG potassium channel = hERG potassium channel (Homo sapiens (Human), UniProt Q12809); assay: hERG potassium channel current in stably expressed CHO cells; assay type: cell-based; settings: at 30 µM, 0.01 to 30 µM tested
Source text: The hERG predictor assay provides valuable information about the possible binding of test compounds to the potassium channel and potential QT prolongation on […]. Inhibition of the hERG current causes QT interval prolongation resulting in potentially fatal ventricular tachyarrhythmia (Torsades de Pointes). Typically, assay data may be generated from an automated patch-clamp assay platform.

TK6 cells = assay: In vitro micronucleus assay; assay type: cell-based; settings: 27 hours recovery
Protocol: The micronucleus assay may be used to determine if a compound is genotoxic by evaluating the presence of micronuclei. Micronuclei may contain chromosome fragments produced from DNA breakage (clastogens) or whole chromosomes produced by disruption of the mitotic apparatus (aneugens).
Induction of chromosome damage was assessed using the in vitro micronucleus assay in TK6 cells.

[4] = tested on: HCT116 human colorectal carcinoma cells; assay: In vitro cytotoxicity (Cell Tox), alamarBlue; assay type: cell-based; settings: HCT-116, 96-hour continual compound exposure
Source text: There is also a need for compounds that have a favourable safety profile, which may be measured by a variety of standard in vitro and in vivo methods. A cell toxicity counter-screen may be used to assay the anti-proliferative/cytotoxic effect in a particular cell line (e.g. HCT116) by fluorometric detection of rezasurin (alamarBlue™) to resofurin in response to mitochondrial activity.
In Vitro Cytotoxicity (Cell Tox): Measured in HCT116 human colorectal carcinoma cells using alamarBlue™ as the assay endpoint. Compound cytotoxicity was measured over a period of 96-hour continual compound exposure.

[5] = Log D lipophilicity measurement; assay type: physicochemical; settings: pH 7.4; read-out: Log D measured at pH 7.4
Source text: log D: distribution co-efficient; lipophilicity measurement.

Turbidimetric solubility = assay type: physicochemical; settings: aqueous buffer, kinetic from dmso stock
Source text: The solubility of a compound is an important factor in achieving a desired concentration of drug in systemic circulation for the anticipated pharmacological response. Low aqueous solubility is a problem encountered with formulation development of new chemical entities and to be absorbed a drug must be present in the form of solution at the site of absorption. The kinetic solubility of a compound may be measured using a turbidimetric solubility assay, the data from which may also be used in conjunction with Caco-2 permeability data to predict dose dependent human intestinal absorption.
Turbidimetric solubility: Test compound solution prepared in DMSO diluted into aqueous buffer. Turbidimetry is used as the end-point by measuring absorbance at 620 nm.

FaSSIF solubility = assay type: physicochemical; settings: pH 6.5, fasted state simulated intestinal fluid
Source text: FaSSIF: simulated intestinal fluid in fasted state measured at pH 6.5.

Hepatocyte Cl human = assay type: in vitro ADME; settings: human hepatocytes
Protocol: Hep Cl human: in vitro hepatocyte clearance in human cells.
as §1

WT-MDCK in vitro flux = assay type: in vitro ADME; settings: dog
[6] = Plasma binding mouse (equilibrium dialysis); assay type: in vitro ADME; settings: read-out: Binding Mouse Plasma fu,p
Source text: (§2) Plasma fu,p: The free fraction of a compound in plasma preparation determined by in vitro equilibrium dialysis. It is understood that only unbound (free) compound is capable of engaging with the target. Brain fu,br: The free fraction of a compound in brain homogenate preparation determined by in vitro equilibrium dialysis. It is understood that only unbound (free) compound is capable of engaging with the target.

[7] = Brain homogenate binding mouse (equilibrium dialysis); assay type: in vitro ADME; settings: read-out: Binding Mouse Brain fu,br
Source text: as §2

PK mouse (IV and oral) = assay type: in vivo; settings: plasma
Source text: Cl in vivo clearance: Pharmacokinetic measurement of the volume of plasma (or any matrix) from which a substance is completely removed per unit time.

Mouse PK microdialysis = assay type: in vivo
Source text: (§3) Kpuu is the ratio of unbound drug in brain to unbound drug in plasma and may be indicative of potential for treating peripheral and/or CNS indications.

Rat PK microdialysis = assay type: in vivo; settings: microdialysis 30 mg/kg po
Source text: as §3

Dog PK (CSF) = assay type: in vivo
Source text: as §3

UUO injured kidneys = assay: Unilateral ureteral obstructive kidney disease model (UUO); assay type: in vivo, C57BL/6 mice; settings: 10 days
Source text: UUO causes renal injury characterised by tubular cell injury, interstitial inflammation and fibrosis. It serves as a model of irreversible post-renal acute kidney injury (AKI). Experimental UUO has illustrated the molecular mechanisms of apoptosis, inflammation and fibrosis, all of which are key processes in renal injury, regardless of the primary insult. Consequently, the UUO model provides investigators information beyond obstruction (Chevalier et al, 2009, Kidney Int 75(11): 1145-1152). Example 1 was assessed in the UUO model to determine the ability of the compound to attenuate progressive tubulointerstitial fibrosis and chronic kidney disease (CKD). […] Two hours post dosing on day 1 study mice underwent surgery to ligate the left ureter at two points. Successful UUO surgery was later confirmed by observation of dilation of renal pelvis due to hydronephrosis. The animals were dosed according to their prescribed regimen for 10 days at which point kidneys were harvested, or histopathology assessment and for protein/RNA assessment. Picrosirius Red staining was performed to assess the extent of collagen deposition and IHC was employed to assess relative α-Smooth Muscle Actin (α-SMA) expression.

[8] = tested on: Salmonella typhimurium strains TA98, TA100, TA1535 and TA97a and the Escherichia Coli strain WP2 uvrA pKM101; assay: Bacterial reverse mutation assay (Ames); settings: up to 5000 µg/plate with and without metabolic activation
Protocol: The bacterial reverse mutation assay (Ames Test) may be used to evaluate the mutagenic properties of compounds of the invention, commonly by using the bacterial strain Salmonella typhimurium, which is mutant for the biosynthesis of the amino acid histidine.
All in vitro tests were conducted with and without exogenous metabolic activation using concentrations up to those limited by cytotoxicity or insolubility.

Sequence of Cathepsin V (O60911 114-334, species assumed): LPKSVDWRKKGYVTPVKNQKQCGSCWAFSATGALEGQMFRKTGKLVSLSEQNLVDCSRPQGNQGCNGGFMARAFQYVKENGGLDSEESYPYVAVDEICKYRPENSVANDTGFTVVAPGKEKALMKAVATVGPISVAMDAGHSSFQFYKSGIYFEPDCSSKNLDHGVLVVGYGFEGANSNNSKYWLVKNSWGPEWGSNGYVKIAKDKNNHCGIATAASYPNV
Sequence of Cathepsin L (P07711 114-333, species assumed): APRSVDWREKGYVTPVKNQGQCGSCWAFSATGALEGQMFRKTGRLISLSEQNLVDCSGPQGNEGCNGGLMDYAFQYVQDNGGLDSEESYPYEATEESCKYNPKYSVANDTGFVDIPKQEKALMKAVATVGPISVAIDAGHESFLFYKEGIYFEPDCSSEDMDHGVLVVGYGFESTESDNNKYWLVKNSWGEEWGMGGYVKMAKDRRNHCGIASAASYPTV
Sequence of UCHL1 (P09936 whole entry, species assumed): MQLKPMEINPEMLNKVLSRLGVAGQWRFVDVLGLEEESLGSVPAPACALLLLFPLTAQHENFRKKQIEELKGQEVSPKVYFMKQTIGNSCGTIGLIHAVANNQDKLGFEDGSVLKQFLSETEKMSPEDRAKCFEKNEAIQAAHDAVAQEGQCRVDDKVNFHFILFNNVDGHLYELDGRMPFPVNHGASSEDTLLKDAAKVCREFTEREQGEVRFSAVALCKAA
Sequence of USP30 (Q70CQ3 57-517): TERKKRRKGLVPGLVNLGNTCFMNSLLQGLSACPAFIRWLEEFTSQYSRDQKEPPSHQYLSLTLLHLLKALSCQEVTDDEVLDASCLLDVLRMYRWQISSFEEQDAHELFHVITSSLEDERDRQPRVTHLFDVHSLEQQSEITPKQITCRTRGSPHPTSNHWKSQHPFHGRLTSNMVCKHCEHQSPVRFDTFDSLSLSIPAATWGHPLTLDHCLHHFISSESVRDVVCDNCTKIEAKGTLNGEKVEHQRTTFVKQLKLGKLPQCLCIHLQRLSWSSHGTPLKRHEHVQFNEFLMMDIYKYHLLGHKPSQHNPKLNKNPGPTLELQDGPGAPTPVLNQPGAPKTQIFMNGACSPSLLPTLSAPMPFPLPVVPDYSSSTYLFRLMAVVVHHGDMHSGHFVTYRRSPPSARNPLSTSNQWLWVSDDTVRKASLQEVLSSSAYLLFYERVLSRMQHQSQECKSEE
Sequence of hERG potassium channel (Q12809 whole entry): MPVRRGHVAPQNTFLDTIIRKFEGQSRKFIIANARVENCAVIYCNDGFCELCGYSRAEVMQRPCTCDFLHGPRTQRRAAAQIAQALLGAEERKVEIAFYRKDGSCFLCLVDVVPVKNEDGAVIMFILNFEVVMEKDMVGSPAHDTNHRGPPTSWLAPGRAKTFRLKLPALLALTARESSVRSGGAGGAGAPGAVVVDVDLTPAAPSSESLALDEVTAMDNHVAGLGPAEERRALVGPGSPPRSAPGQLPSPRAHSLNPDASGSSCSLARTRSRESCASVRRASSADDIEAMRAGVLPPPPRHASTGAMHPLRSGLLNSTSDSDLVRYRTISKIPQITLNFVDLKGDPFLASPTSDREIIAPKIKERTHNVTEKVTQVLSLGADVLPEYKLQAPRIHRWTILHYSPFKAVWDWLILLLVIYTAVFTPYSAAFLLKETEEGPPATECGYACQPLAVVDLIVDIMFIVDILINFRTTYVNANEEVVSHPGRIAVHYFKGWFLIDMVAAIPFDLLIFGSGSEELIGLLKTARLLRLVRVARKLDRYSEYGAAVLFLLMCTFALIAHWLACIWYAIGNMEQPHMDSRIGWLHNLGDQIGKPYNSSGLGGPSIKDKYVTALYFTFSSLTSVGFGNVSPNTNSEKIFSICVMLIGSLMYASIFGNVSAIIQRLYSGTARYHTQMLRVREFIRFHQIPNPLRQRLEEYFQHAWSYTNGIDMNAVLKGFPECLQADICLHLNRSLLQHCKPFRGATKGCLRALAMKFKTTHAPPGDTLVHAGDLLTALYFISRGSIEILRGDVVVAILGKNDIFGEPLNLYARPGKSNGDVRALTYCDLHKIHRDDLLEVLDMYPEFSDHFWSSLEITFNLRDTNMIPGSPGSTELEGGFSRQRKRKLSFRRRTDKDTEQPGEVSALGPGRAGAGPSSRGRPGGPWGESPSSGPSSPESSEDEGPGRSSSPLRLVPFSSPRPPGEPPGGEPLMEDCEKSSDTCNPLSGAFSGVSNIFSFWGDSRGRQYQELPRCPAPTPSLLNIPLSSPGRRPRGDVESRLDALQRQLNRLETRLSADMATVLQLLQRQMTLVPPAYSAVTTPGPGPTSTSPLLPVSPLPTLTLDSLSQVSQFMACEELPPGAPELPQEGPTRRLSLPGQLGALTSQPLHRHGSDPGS

Q: With `COc1ccc(-c2cc(C(=O)N3CC[C@@H]4CN(C#N)C[C@@H]43)on2)cc1` [B] as the compound, how does the IC50 (USP30) read?
A: The IC50 was 0.07 µM.

Q: What about the IC50 [1] of the same compound?
A: The IC50 was 0.54 to 38.8 µM.

Q: And the IC50 (Cathepsin B)?
A: The IC50 was 1.4 µM.

Q: What about the IC50 (Cathepsin L) of the same compound?
A: Its IC50 is 1.8 µM.

Q: And the IC50 (Cathepsin V)?
A: Its IC50 is 2.3 µM.

Q: And the “Hepatocyte Cl mouse scaled Clu” value (Hepatocyte Cl mouse)?
A: The value was over 121 mL/min/kg.

Q: What about the half-life (Mouse plasma stability) of the same compound?
A: Its half-life is 21 min.

Q: For `CC1CC(C(=O)Nc2ncc(-c3ccccc3)s2)CN1C#N` (stereo not shown) [Reference Example E], which “fold more potent against USP30 than UCHL1” value (UCHL1) is on record?
A: The value was 1.5 fold.

Q: Which results are given for `Cc1cc(-c2cccc(C(=O)N3CC[C@@H]4CN(C#N)C[C@@H]43)c2)ccn1` [Reference Example C]?
A: IC50 (USP30): 0.072 µM; IC50 [1]: 4 to 92.4 µM; IC50 (Cathepsin B): 1.2 µM; IC50 (Cathepsin L): 1.3 µM; IC50 (Cathepsin V): 18.5 µM; Hepatocyte Cl mouse scaled Clu (Hepatocyte Cl mouse): 108 mL/min/kg; half-life (Mouse plasma stability): 16 min

Q: What does the source list for `C[C@@H]1[C@H]2CCN(C(=O)c3ncc(-c4ccnc(C#N)c4)o3)[C@H]2CN1C#N` (single isomer, unassigned) [Example 1]?
A: IC50 [1]: 24.9 to 107 µM; IC50 (UCHL1): > 300 µM; IC50 (Cathepsin B): 205 µM; IC50 (Cathepsin L): 42.1 µM; IC50 (Cathepsin V): 247 µM; IC50 [2]: ≥ 42.1 µM; inhibition of binding or enzyme activity against all targets in the panel [3]: less than 50%; maximum inhibition of the hERG current amplitude (hERG potassium channel): 27%; induction of micronuclei (TK6 cells; 3 hours in the presence of exogenous metabolic activation): negative; induction of micronuclei (TK6 cells; 27 hours in the absence of exogenous metabolic activation): negative; EC50 [4]: > 30 µM; logD [5]: 1.4; solubility (Turbidimetric solubility): 65 µM (≈ 22.6 µg/mL); FaSSIF (µM) measured at pH 6.5 (FaSSIF solubility): 488 µM; Hepatocyte Cl mouse scaled Clu (Hepatocyte Cl mouse): 40 mL/min/kg; Hepatocyte Cl human scaled Clu (Hepatocyte Cl human): 18 mL/min/kg; improved plasma stability compared to Reference Examples A, B and C (Mouse plasma stability): 2 to 8 fold; half-life (Mouse plasma stability): > 120 min; Papp A→B (WT-MDCK in vitro flux): 16 ×10⁻⁶ cm/s; fraction unbound [6]: 0.14; fraction unbound [7]: 0.3; bioavailability (PK mouse (IV and oral); po, mouse 10 mg/kg, read-out: Oral F (%)): 87%; clearance (PK mouse (IV and oral); mouse 2 mg/kg IV, read-out: Cl plasma): 19 mL/min/kg; CNS distribution in vivo by microdialysis sampling of brain regions (Mouse PK microdialysis; 30 mg/kg oral dose in mice and rats): high CNS distribution; Mouse Kpuu (PFCu/plasmau) (Mouse PK microdialysis; microdialysis 30 mg/kg po): 0.90; Mouse PFCu/cell TOM20-Ub (Mouse PK microdialysis; microdialysis 30 mg/kg po): 125-fold; Rat Kpuu (PFCu/plasmau) (Rat PK microdialysis): 0.43; Dog Kpuu (CSF/plasmau) (Dog PK (CSF); 30 mg/kg po): 0.41; partition to the cerebro-spinal fluid (CSF) (Dog PK (CSF); dogs, 30 mg/kg orally): high partition; α-SMA levels in UUO injured kidneys vs vehicle (UUO injured kidneys; 1.5 mg/kg oral BID): statistical reduction in α-SMA levels; collagen deposition (picrosirius red staining) in ligated kidneys (UUO injured kidneys; 1.5 mg/kg p.o. BID): statistically reduced collagen deposition; collagen deposition (picrosirius red staining) in ligated kidneys (UUO injured kidneys; 5 mg/kg p.o. BID): statistically reduced collagen deposition; induction of mutations in reverse mutation assay [8]: did not induce mutations

Q: Which “fold more potent against USP30 than UCHL1” value (UCHL1) does the source give for `N#CN1CC[C@H](C(=O)Nc2ncc(-c3ccccc3)s2)C1` [D] here?
A: Its value is 0.8 fold.
